Assay [1] concerns the target T1, Alpha-1D adrenergic receptor (Homo sapiens, UniProt P25100).
T1 sequence (P25100 whole entry): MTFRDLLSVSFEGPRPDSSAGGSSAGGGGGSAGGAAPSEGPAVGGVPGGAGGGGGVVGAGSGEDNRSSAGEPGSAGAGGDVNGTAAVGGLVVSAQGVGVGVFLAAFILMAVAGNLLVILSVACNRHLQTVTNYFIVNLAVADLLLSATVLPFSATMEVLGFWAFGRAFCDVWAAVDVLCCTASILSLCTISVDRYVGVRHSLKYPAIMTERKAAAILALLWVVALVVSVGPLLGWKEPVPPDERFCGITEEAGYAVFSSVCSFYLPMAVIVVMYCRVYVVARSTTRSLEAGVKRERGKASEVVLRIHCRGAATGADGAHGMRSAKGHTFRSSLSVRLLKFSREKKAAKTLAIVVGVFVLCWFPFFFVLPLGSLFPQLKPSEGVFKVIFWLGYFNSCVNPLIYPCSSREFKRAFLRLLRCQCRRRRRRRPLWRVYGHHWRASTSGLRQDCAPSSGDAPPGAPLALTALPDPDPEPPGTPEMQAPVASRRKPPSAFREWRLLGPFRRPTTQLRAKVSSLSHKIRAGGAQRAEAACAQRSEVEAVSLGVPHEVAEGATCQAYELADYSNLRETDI
Description: Antagonist activity at human full-length N-terminal SNAP-tagged alpha1D adrenoceptor expressed in HEK293 cells assessed as inhibition of agonist-induced calcium mobilization preincubated for 10 mins followed by agonist addition by fluo-4 AM dye-based assay

Assay [2] deals with T2, Alpha-1A adrenergic receptor (Homo sapiens) (UniProt P35348).
T2 sequence (whole entry): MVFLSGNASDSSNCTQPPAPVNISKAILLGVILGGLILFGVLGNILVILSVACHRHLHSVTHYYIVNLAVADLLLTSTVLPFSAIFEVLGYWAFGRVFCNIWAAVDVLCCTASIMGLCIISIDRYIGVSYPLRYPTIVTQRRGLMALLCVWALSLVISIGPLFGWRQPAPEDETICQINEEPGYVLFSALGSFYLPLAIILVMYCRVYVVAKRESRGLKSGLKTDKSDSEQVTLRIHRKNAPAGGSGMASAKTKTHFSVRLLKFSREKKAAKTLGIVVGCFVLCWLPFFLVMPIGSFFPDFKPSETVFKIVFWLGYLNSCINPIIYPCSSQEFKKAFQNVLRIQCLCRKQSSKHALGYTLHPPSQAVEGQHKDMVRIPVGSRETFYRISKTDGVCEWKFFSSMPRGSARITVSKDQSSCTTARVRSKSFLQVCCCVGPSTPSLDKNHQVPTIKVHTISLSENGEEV
As to the kind of experiment: Antagonist activity at human full-length N-terminal SNAP-tagged alpha1A adrenoceptor expressed in HEK293 cells assessed as inhibition of agonist-induced calcium mobilization at 10 uM preincubated for 10 mins followed by agonist addition by fluo-4 AM dye-based assay relative to control. Format: functional, cell-based. On the technique in general: Calcium assays in cells follow changes in intracellular calcium, usually with a dye or a luminescent sensor.

Assay [3] deals with T3, Alpha-1B adrenergic receptor (Homo sapiens, UniProt P35368).
T3 sequence (P35368 whole entry): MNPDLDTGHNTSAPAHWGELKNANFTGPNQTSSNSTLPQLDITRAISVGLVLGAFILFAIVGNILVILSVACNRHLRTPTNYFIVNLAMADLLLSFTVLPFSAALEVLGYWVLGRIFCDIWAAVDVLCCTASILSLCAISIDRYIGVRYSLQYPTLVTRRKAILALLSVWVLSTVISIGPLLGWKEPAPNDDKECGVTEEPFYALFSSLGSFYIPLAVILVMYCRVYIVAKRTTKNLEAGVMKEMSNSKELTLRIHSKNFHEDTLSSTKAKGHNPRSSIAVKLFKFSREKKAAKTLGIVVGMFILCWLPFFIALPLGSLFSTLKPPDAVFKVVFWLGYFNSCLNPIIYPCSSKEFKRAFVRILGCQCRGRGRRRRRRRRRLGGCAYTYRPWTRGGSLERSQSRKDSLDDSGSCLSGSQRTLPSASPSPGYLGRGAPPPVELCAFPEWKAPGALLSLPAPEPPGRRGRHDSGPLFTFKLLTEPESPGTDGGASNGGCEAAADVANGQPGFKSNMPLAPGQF
Description: Antagonist activity at human full-length N-terminal SNAP-tagged alpha1B adrenoceptor expressed in HEK293 cells assessed as inhibition of agonist-induced calcium mobilization preincubated for 10 mins followed by agonist addition by fluo-4 AM dye-based assay

The target in assay [4] is T4, Alpha-1A adrenergic receptor (Homo sapiens, UniProt P35348).
T4 sequence (P35348 whole entry): T2 sequence (whole entry)
Description: Antagonist activity at human full-length N-terminal SNAP-tagged alpha1A adrenoceptor expressed in HEK293 cells assessed as inhibition of agonist-induced calcium mobilization preincubated for 10 mins followed by agonist addition by fluo-4 AM dye-based assay

The species named for assay [5] is Homo sapiens. The assay can be described thus: Selectivity ratio of IC50 for human full-length N-terminal SNAP-tagged alpha1D adrenoceptor to IC50 for human full-length N-terminal SNAP-tagged alpha1A adrenoceptor.
The species entered for assay [6] is Homo sapiens. The assay can be described thus: Selectivity ratio of IC50 for human full-length N-terminal SNAP-tagged alpha1B adrenoceptor to IC50 for human full-length N-terminal SNAP-tagged alpha1A adrenoceptor.
Assay [7] deals with T5, Alpha-1A adrenergic receptor (Rattus norvegicus, UniProt P43140).
T5 sequence (P43140 whole entry): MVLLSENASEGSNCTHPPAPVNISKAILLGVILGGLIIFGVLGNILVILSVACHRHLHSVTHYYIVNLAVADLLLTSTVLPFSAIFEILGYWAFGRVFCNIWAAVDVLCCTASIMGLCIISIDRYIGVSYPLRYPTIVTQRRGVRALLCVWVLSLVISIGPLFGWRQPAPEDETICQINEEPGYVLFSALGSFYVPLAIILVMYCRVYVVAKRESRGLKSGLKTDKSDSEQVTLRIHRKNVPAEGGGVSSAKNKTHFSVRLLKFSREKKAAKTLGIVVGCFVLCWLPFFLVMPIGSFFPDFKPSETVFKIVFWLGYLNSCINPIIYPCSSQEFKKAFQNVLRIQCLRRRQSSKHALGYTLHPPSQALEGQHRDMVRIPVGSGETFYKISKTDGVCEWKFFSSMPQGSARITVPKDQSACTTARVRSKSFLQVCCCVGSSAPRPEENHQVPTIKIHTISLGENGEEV
The assay can be described thus: Displacement of [125I]-BE2254 from Wistar rat alpha1A adrenoceptor after 20 mins.

Each structure is given as a SMILES string.

The term IC50 denotes the concentration that gives 50% inhibition. Higher therefore signals weaker potency. What is called inhibition is the share of the control response that was lost under treatment. In the case of `CCOc1ccccc1OCCN[C@H](C)Cc1ccc(OC)c(S(N)(=O)=O)c1` [TAMSULOSIN], the figures for the IC50 in assay [1] and in assay [3] were 0.0014 µM and 0.0048 µM, respectively. Further, the inhibition in assay [2] turned out to be 100%.
On to `COc1ccc(C2c3[nH]c4ccccc4c3CC3c4cc5c(cc4CCN32)OCO5)cc1` (configuration not stated), for which the inhibition in assay [2] stood at 0%.
For `COc1ccc2c(c1)CCN1C(C)c3[nH]c4ccccc4c3CC21` (configuration not stated), in assay [2], the inhibition amounted to 90%. In assay [4], this compound came in with an IC50 of 8.67 µM.
As for `CCCOc1cc2c(cc1OC)CCN1Cc3[nH]c4ccc(OC)cc4c3CC21` (configuration not stated), the IC50 in assay [1] was over 10 µM; in assay [3] it was over 10 µM; in assay [4], 0.225 µM. Also, the inhibition in assay [2] came to 100%. Further, the Ratio IC50 in the assay filed under Homo sapiens [5] and in the assay filed under Homo sapiens [6] was over 44.4 each time.
Regarding `COc1cc2c(cc1OC)C1Cc3c([nH]c4ccccc34)C(CC(C)C)N1CC2` (configuration not stated), in assay [2], the inhibition turned out to be 72%.
For the compound `COc1ccc2[nH]c3c(c2c1)CC1c2cc(OC)c(O)cc2CCN1C3` (configuration not stated), the inhibition in assay [2] is 0%.
`CCC1c2[nH]c3ccccc3c2CC2c3cc4c(cc3CCN21)OCO4` (configuration not stated): in assay [2], the inhibition was 82%. Also, the IC50 in assay [4] is over 10 µM.
Take `c1ccc(COc2ccc3[nH]c4c(c3c2)CC2c3cc5c(cc3CCN2C4)OCO5)cc1` (configuration not stated): the inhibition in assay [2] was 100%. In addition, the IC50 in assay [4] turned out to be 2.88 µM.
Regarding `COc1ccc2c3c([nH]c2c1)CN1CCc2cc4c(cc2C1C3)OCO4` (configuration not stated), the results for the IC50 in assay [1], in assay [3] and in assay [4] were over 10 µM, over 10 µM and 0.594 µM, respectively. For the same compound, the inhibition in assay [2] was determined as 100%. The Ratio IC50 in the assay listed under Homo sapiens [5] and in the assay filed under Homo sapiens [6] was over 16.8 in each case.
As for `COc1ccc2c(c1)CCN1Cc3[nH]c4ccccc4c3CC21` (configuration not stated), the inhibition in assay [2] came out at 100%. It took 0.552 µM to reach half-maximal inhibition in assay [4] (IC50).
Regarding `COc1cc2cc[n+]3c(c2cc1OC)Cc1ccc(OC)c(OC)c1C3`, the IC50 in assay [4] worked out at 7.6 µM.
For `Fc1ccc2c3c([nH]c2c1)CN1CCc2cc4c(cc2C1C3)OCO4` (configuration not stated), the inhibition in assay [2] is 100%. This compound had an IC50 in assay [4] of 2.06 µM.
`c1c2c(cc3c1OCO3)CN1CCc3cc4c(cc3C1C2)OCO4` (configuration not stated): in assay [4], the IC50 was 0.462 µM. This lies in the sub-micromolar range.
Take `c1ccc2c3c([nH]c2c1)CN1CCc2cc4c(cc2C1C3)OCO4` (configuration not stated): the values for the IC50 in assay [1], in assay [3] and in assay [4] were over 10 µM, over 10 µM and 0.125 µM, respectively. For the same compound, the inhibition in assay [2] was 100%. Further, the Ratio IC50 in the assay filed under Homo sapiens [5] and in the assay listed under Homo sapiens [6] was over 80 each time.
Turning to `COc1cc2c(cc1OC)[C@@H]1Cc3ccc(OC)c(OC)c3CN1CC2`, the inhibition in assay [2] amounted to 41.2%.
In the case of `COc1cc2c(cc1OC)C1Cc3c([nH]c4ccccc34)CN1CC2` (configuration not stated), in assay [2], the inhibition stood at 60%.
`COc1ccc2c(c1)CCN1C2Cc2c([nH]c3ccccc23)C1C1CC1` (configuration not stated): in assay [2], the inhibition was determined as 31%.
Take `c1ccc2c3c([nH]c2c1)CN1CCc2cc4c(cc2[C@@H]1C3)OCO4`: the results for the IC50 in assay [1], in assay [3] and in assay [4] were over 10 µM, over 10 µM and 0.0574 µM, respectively. In addition, in assay [2], the inhibition amounted to 99%. For the same compound, the Ratio IC50 in the assay filed under Homo sapiens [5] and in the assay listed under Homo sapiens [6] was over 174 throughout.
As to `COc1ccc(C2c3[nH]c4ccccc4c3CC3c4cc(OC)c(OC)cc4CCN32)cc1` (configuration not stated), the inhibition in assay [2] stood at 21%.
As a reminder, the Ki is the dissociation constant of the complex between target and ligand, obtained from inhibition or displacement. Low readings indicate a stronger hold on the target, high ones a looser hold on the target. In turn, `COc1ccc2c(c1OC)CN1CCc3cc4c(cc3C1C2)OCO4` (configuration not stated) [TETRAHYDROBERBERINE] gave a Ki in assay [7] of 1.12 µM.
Turning to `CCOc1cc2c(cc1OC)C1Cc3c([nH]c4ccc(OC)cc34)CN1CC2` (configuration not stated), the inhibition in assay [2] came to 17%.
Compound `COc1ccc2c(c1OC)CN1CCc3cc4c(cc3[C@@H]1C2)OCO4` [CANADINE] yielded an IC50 in assay [4] of 5.4 µM.
With `COc1cc2c(cc1OC)C1Cc3c([nH]c4ccccc34)C(c3ccccc3)N1CC2` (configuration not stated), the inhibition in assay [2] came to 0%.
In the case of `Fc1ccc(C2c3[nH]c4ccccc4c3CC3c4cc5c(cc4CCN32)OCO5)cc1` (configuration not stated), the inhibition in assay [2] is 0%.
As to `COc1cccc2[nH]c3c(c12)CC1c2cc4c(cc2CCN1C3)OCO4` (configuration not stated), the IC50 in assay [1] is over 10 µM; in assay [3] it was over 10 µM; in assay [4] it was 0.202 µM. Besides, the inhibition in assay [2] turned out to be 100%. The Ratio IC50 in the assay listed under Homo sapiens [5] and in the assay listed under Homo sapiens [6] was over 19.4 each time.
For `COc1cc2c(cc1OC)C1Cc3c([nH]c4ccccc34)C(c3ccc(F)cc3)N1CC2` (configuration not stated), in assay [2], the inhibition turned out to be 0%.
Same read-out and setting: for `CCCOc1cc2c(cc1OC)C1Cc3c([nH]c4ccc(OC)cc34)CN1CC2` (configuration not stated) the value was 21%.
Regarding `Fc1ccc2[nH]c3c(c2c1)CC1c2cc4c(cc2CCN1C3)OCO4` (configuration not stated), the IC50 was 8.39 µM in assay [1], over 10 µM in assay [3] and 0.254 µM in assay [4]. Besides, the inhibition in assay [2] stood at 100%. Besides, the values for the Ratio IC50 in the assay filed under Homo sapiens [5] and in the assay listed under Homo sapiens [6] were 33.1 and over 39.4, respectively.
As for `COc1ccc2[nH]c3c(c2c1)C[C@@H]1c2cc4c(cc2CCN1C3)OCO4`, in assay [2], the inhibition was found to be 100%. This compound also displayed an IC50 in assay [4] of 3.19 µM.
Turning to `CCOc1cc2c(cc1OC)CCN1Cc3[nH]c4ccc(OC)cc4c3CC21` (configuration not stated), in assay [2], the inhibition was determined as 75%.
As to `COc1cc2c(cc1O)[C@@H]1Cc3c(Cl)cc(OC)c(O)c3CN1CC2`, the affinity in assay [7] corresponds to a Ki of 1.38 µM.
Consider `COc1ccc(C2c3[nH]c4ccccc4c3CC3c4ccc(OC)cc4CCN32)cc1` (configuration not stated), for which the inhibition in assay [2] amounted to 80%. The compound also registered an IC50 in assay [4] of over 10 µM.
With `CCCCOc1cc2c(cc1OC)C1Cc3c([nH]c4ccc(OC)cc34)CN1CC2` (configuration not stated), the inhibition in assay [2] stood at 63%.
The compound `COc1cc2c(cc1O)[C@@H]1Cc3ccc(O)c(OC)c3CN1CC2` [STEPHOLIDINE] gave a Ki in assay [7] of 2.24 µM.
For `CC(C)CC1c2[nH]c3ccccc3c2CC2c3cc4c(cc3CCN21)OCO4` (configuration not stated), the inhibition in assay [2] was 0%.
Consider `COc1ccc2[nH]c3c(c2c1)CC1c2cc(O)c(OC)cc2CCN1C3` (configuration not stated), for which, in assay [2], the inhibition stood at 56%.
Take `CCCCOc1cc2c(cc1OC)CCN1Cc3[nH]c4ccc(OC)cc4c3CC21` (configuration not stated): the inhibition in assay [2] stood at 98%. This compound also yielded an IC50 in assay [4] of 2.29 µM.
